Values of other authors in US20120283223A1, “CEREBRAL NERVE CELL NEOGENESIS AGENT” (priority 2010, published 2012).

Test system: cerebral nerve cells
Conditions: in 3 to 4 weeks; Non-Patent Literature 1

## CNCCC(Oc1ccc(C(F)(F)F)cc1)c1ccccc1 (stereo not shown) [fluoxetine]
  number of cerebral nerve cells: increases
